# Measured values reported in patent US9708336B2, “Metallo-beta-lactamase inhibitors” (priority 2014, dated 2017).
# Like-named read-outs stand apart in the source and are kept apart here.
# Experiments:
# VIM-1 = VIM-1 (Pseudomonas aeruginosa (strain ATCC 15692 / DSM 22644 / CIP 104116 / JCM 14847 / LMG 12228 / 1C / PRS 101 / PAO1), UniProt A0A0F7KYQ8); experiment: Enzyme activity: determination of IC50, fluorescence assay with CCF2-FA substrate (VIM-1); assay type: biochemical
# IMP-1 = IMP-1 (Serratia marcescens, UniProt P52699); experiment: biochemical; assay type: biochemical; conditions: read-out: IMP-1 IC50
# [1] = test system: Escherichia coli expressing NDM-1 (CLB30016); experiment: Antibiotic potentiation activity: synergistic concentration (MITC95) with imipenem, OD600 growth; assay type: cell-based; conditions: for Escherichia coli expressing NDM-1 (CLB 30016) MITC95: concentration giving 95% inhibition of bacterial growth
# Method in brief: (§1)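 Overnight colonies (35 °C) were suspended in saline, diluted 1:100 into 1.1× CAMHB, and exposed to test compound with imipenem at 4 μg/ml (optionally 1 μg/ml) in assay. After 22–24 h at 35 °C, growth was read by absorbance.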
# [2] = test system: Serratia marcescens expressing IMP-1 (CL5741); experiment: as above; assay type: cell-based; conditions: for Serratia marcescens expressing IMP-1 (CL5741) MITC95: concentration giving 95% inhibition of bacterial growth
# Method in brief: as §1
# [3] = test system: Klebsiella pneumoniae expressing VIM-1 (IHMA599644); experiment: as above; assay type: cell-based; conditions: for Klebsiella pneumoniae expressing VIM-1 (IHMA 599644) MITC95: concentration giving 95% inhibition of bacterial growth
# Method in brief: as §1
# NDM-1 = NDM-1 (Klebsiella pneumoniae, UniProt C7C422); experiment: biochemical; assay type: biochemical; conditions: read-out: NDM-1 IC50
# [4] = VIM-1 enzyme, CCF2-FA substrate, read-out: VIM-1 IC50
# [5] = IMP-1 enzyme, CCF2-FA substrate
# [6] = (CLB30016, NDM-1), 95% growth inhibition
# [7] = Serratia marcescens CL5741 (IMP-1), 95% growth inhibition
# [8] = Klebsiella pneumoniae IHMA599644 (VIM-1), 95% growth inhibition
# [9] = NDM-1 enzyme, CCF2-FA substrate
# [10] = VIM-1 enzyme, CCF2-FA fluorescence assay, read-out: VIM-1 IC50
# [11] = IMP-1 enzyme, CCF2-FA fluorescence assay
# [12] = Escherichia coli expressing NDM-1 (CLB30016), 95% growth inhibition
# [13] = Serratia marcescens expressing IMP-1 (CL5741), 95% growth inhibition
# [14] = Klebsiella pneumoniae expressing VIM-1 (IHMA599644), 95% growth inhibition
# [15] = NDM-1 enzyme, CCF2-FA fluorescence assay
# [16] = fluorescence assay with CCF2-FA substrate, read-out: VIM-1 IC50
# [17] = fluorescence assay with CCF2-FA substrate
# [18] = CLB30016 (NDM-1), 95% inhibition of bacterial growth
# [19] = CL5741 (IMP-1), 95% inhibition of bacterial growth
# [20] = IHMA599644 (VIM-1), 95% inhibition of bacterial growth
# [21] = VIM-1 IC50, VIM-1 enzyme, CCF2-FA substrate
# Sequence of NDM-1 (C7C422 whole entry, looked up, species assumed): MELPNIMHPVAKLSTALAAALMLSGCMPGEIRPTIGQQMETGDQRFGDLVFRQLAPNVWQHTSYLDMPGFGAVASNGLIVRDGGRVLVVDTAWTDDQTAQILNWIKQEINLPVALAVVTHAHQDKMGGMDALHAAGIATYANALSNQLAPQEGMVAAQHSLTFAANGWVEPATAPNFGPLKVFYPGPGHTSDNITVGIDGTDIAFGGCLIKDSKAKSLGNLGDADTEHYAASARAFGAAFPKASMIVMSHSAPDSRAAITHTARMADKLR
# Sequence of IMP-1 (P52699 whole entry, looked up): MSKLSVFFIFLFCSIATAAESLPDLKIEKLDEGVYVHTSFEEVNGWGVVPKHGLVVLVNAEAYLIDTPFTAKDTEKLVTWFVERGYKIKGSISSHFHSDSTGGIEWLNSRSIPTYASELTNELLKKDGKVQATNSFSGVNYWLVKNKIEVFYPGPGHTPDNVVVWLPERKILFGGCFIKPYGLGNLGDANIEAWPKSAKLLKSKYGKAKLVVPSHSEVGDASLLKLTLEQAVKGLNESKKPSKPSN
SMILES,IC50 (IMP-1; [5]) [nM],"Escherichia coli MITC95 [1, 6] [µM]","Serratia marcescens MITC95 [2, 7] [µM]","Klebsiella pneumoniae MITC95 [3, 8] [µM]",IC50 (NDM-1; [9]) [nM],IC50 (VIM-1; [10]) [nM],IC50 (IMP-1; [11]) [nM],"Escherichia coli MITC95 [1, 12] [µM]","Serratia marcescens MITC95 [2, 13] [µM]","Klebsiella pneumoniae MITC95 [3, 14] [µM]",IC50 (NDM-1; [15]) [nM],also measured
"NS(=O)(=O)c1c(C(F)(F)F)ccc(-c2ccc(C3CCN(CC4CNC4)CC3)cc2)c1-c1nnn[nH]1 [Example 671, 4′-[1-(azetidin-3-ylmethyl)piperidin-4-yl]-2-(1H-tetrazol-5-yl)-4-(trifluoromethyl)biphenyl-3-sulfonamide]",2,1.172,1.563,37.5,4.13,–,–,–,–,–,–,IC50 (VIM-1; [4]): 5.65 nM
"NS(=O)(=O)c1c(C(F)(F)F)ccc(N2C[C@H](O)C[C@@H](O)C2)c1-c1nnn[nH]1 [Example 666, 3-[(3R,5R)-3,5-dihydroxypiperidin-1-yl]-2-(1H-tetrazol-5-yl)-6-(trifluoromethyl)benzenesulfonamide]",150,2.344,4.688,12.5,57,–,–,–,–,–,–,IC50 (VIM-1; [4]): 14.7 nM
"NS(=O)(=O)c1cccc(-c2cccc3sc(Br)nc23)c1-c1nnn[nH]1 [Example 421, 3-(2-Bromobenzo[d]thiazol-4-yl)-2-(1H-tetrazol-5-yl)benzenesulfonamide]",–,–,–,–,–,2.3,18.8,3.125,25,>200,0.291,–
"NS(=O)(=O)c1c(C(F)(F)F)ccc(-c2cccc3ncccc23)c1-c1nn[nH]n1 [Example 486, 3-(Quinolin-5-yl)-2-(2H-tetrazol-5-yl)-6-(trifluoromethyl)benzenesulfonamide]",–,–,–,–,–,0.134,1.19,1.208,0.1367,4.531,0.192,–
"NS(=O)(=O)c1c(C(F)(F)F)ccc(-c2ccc3c(c2)CCNC3)c1-c1nnn[nH]1 [Example 721, 3-(1,2,3,4-tetrahydroisoquinolin-6-yl)-2-(1H-tetrazol-5-yl)-6-(trifluoromethyl)benzenesulfon-amide]",9.18,6.25,6.25,1.563,3.02,–,–,–,–,–,–,IC50 (VIM-1; [4]): 0.807 nM
"NS(=O)(=O)c1c(C(F)(F)F)ccc(N2CCC3(CCNCC3)CC2)c1-c1nnn[nH]1 [Example 783, 3-(3,9-diazaspiro[5.5]undecan-3-yl)-2-(1H-tetrazol-5-yl)-6-(trifluoromethyl) benzenesulfonamide]",–,–,–,–,–,–,–,–,–,–,–,"IC50 (VIM-1; [16]): 1.93 nM; IC50 (IMP-1; [17]): 13.4 nM; Escherichia coli MITC95 [1, 18]: 1.172 µM; Serratia marcescens MITC95 [2, 19]: 0.5859 µM; Klebsiella pneumoniae MITC95 [3, 20]: 2.344 µM; IC50 (NDM-1; [17]): 4.91 nM"
"NC1(CN2CCC(c3ccc(-c4ccc(C(F)(F)F)c(S(N)(=O)=O)c4-c4nnn[nH]4)cc3)CC2)CC1 [Example 672, 4′-{1-[(1-aminocyclopropyl)methyl]piperidin-4-yl}-2-(1H-tetrazol-5-yl)-4-(trifluoromethyl)biphenyl-3-sulfonamide]",2.51,6.25,4.688,75,3.66,–,–,–,–,–,–,IC50 (VIM-1; [21]): 3.38 nM
"Cc1cc(N)ncc1Cc1cccc(S(N)(=O)=O)c1-c1nn[nH]n1 [Example 573, 3-((6-amino-4-methylpyridin-3-yl)methyl)-2-(2H-tetrazol-5-yl)benzenesulfonamide]",668,0.7813,12.5,12.5,38.6,–,–,–,–,–,–,IC50 (VIM-1; [4]): 41.4 nM
"NS(=O)(=O)c1c(C[C@H]2CC[C@H](N)CC2)ccc(-c2ccc(C3CNC3)cc2)c1-c1nn[nH]n1 [Example 595, 4-(((1r,4r)-4-aminocyclohexyl)methyl)-4′-(azetidin-3-yl)-2-(2H-tetrazol-5-yl)-[1,1′-biphenyl]-3-sulfonamide]",42.6,0.7813,3.125,1.563,4.34,–,–,–,–,–,–,IC50 (VIM-1; [21]): 1.3 nM
"NS(=O)(=O)c1c(CC2CCNCC2)ccc(-c2ccc(C3CCN(CC4CNC4)CC3)cc2)c1-c1nn[nH]n1 [Example 470, 4′-(1-(azetidin-3-ylmethyl)piperidin-4-yl)-4-(piperidin-4-ylmethyl)-2-(2H-tetrazol-5-yl)-[1,1′-biphenyl]-3-sulfonamide]",–,–,–,–,–,101,3.23,0.7813,1.563,12.5,27,–
"NC(=O)CNCc1ccc(-c2cccc(S(N)(=O)=O)c2-c2nnn[nH]2)cc1 [Example 340, 2-(((3′-sulfamoyl-2′-(1H-tetrazol-5-yl)-[1,1′-biphenyl]-4-yl)methyl)amino)acetamide]",–,–,–,–,–,158,90.2,0.3906,1.563,25,5.14,–
"NS(=O)(=O)c1cccc(-c2ccc(CN3CCC3C(=O)O)cc2)c1-c1nnn[nH]1 (stereo not drawn) [Example 378, 1-{[3′-sulfamoyl-2′-(1H-tetrazol-5-yl)biphenyl-4-yl]methyl}azetidine-2-carboxylic acid]",–,–,–,–,–,407,262,3.125,6.25,50,24.6,–
"N#Cc1cccc(Cc2cccc(S(N)(=O)=O)c2-c2nnn[nH]2)c1 [Example 152, 3-(3-cyanobenzyl)-2-(1H-tetrazol-5-yl)benzenesulfonamide]",–,–,–,–,–,–,–,–,–,–,–,IC50 (VIM-1; [16]): 91.4 nM; IC50 (IMP-1; [17]): 252 nM; Escherichia coli expressing NDM-1 (CLB 30016) MITC95 [1]: 4.688 µM; Serratia marcescens expressing IMP-1 (CL5741) MITC95 [2]: 12.5 µM; Klebsiella pneumoniae expressing VIM-1 (IHMA 599644) MITC95 [3]: 200 µM; IC50 (NDM-1; [17]): 14.2 nM
"NS(=O)(=O)c1cccc(-c2ccc(C3(O)CCNC3)cc2)c1-c1nn[nH]n1 (stereo not drawn) [Example 284, 4′-(3-hydroxypyrrolidin-3-yl)-2-(2H-tetrazol-5-yl)-[1,1′-biphenyl]-3-sulfonamide]",–,–,–,–,–,55.5,102,0.7813,1.563,4.688,12.7,–
"NS(=O)(=O)c1nccc(N2CCC(N3CCOCC3)CC2)c1-c1nnn[nH]1 [Example 239, 4-(4-morpholin-4-ylpiperidin-1-yl)-3-(1H-tetrazol-5-yl)pyridine-2-sulfonamide]",–,–,–,–,–,–,–,–,–,–,–,IC50 (VIM-1; [16]): 945 nM; IC50 (IMP-1; [17]): 3710 nM; Escherichia coli expressing NDM-1 (CLB 30016) MITC95 [1]: 1.563 µM; Serratia marcescens expressing IMP-1 (CL5741) MITC95 [2]: 50 µM; Klebsiella pneumoniae expressing VIM-1 (IHMA 599644) MITC95 [3]: 50 µM; IC50 (NDM-1; [17]): 383 nM
"NC1CCC2CN(c3ccc(C(F)(F)F)c(S(N)(=O)=O)c3-c3nnn[nH]3)CC2C1 (stereo not drawn) [Example 767, 3-(5-aminooctahydro-2H-isoindol-2-yl)-2-(1H-tetrazol-5-yl)-6-(trifluoromethyl) benzenesulfonamide]",–,–,–,–,–,–,–,–,–,–,–,"IC50 (VIM-1; [16]): 4.58 nM; IC50 (IMP-1; [17]): 223 nM; Escherichia coli MITC95 [1, 18]: 200 µM; Serratia marcescens MITC95 [2, 19]: 50 µM; Klebsiella pneumoniae MITC95 [3, 20]: 12.5 µM; IC50 (NDM-1; [17]): 208 nM"
"NC1(c2ccc(-c3ccc(C(F)(F)F)c(S(N)(=O)=O)c3-c3nnn[nH]3)cc2)CCCC1 [Example 729, 4′-(1-aminocyclopentyl)-2-(1H-tetrazol-5-yl)-4-(trifluoromethyl)biphenyl-3-sulfonamide]",6.97,6.25,6.25,25,4.85,–,–,–,–,–,–,IC50 (VIM-1; [4]): 7.37 nM
"NCc1ccc2cc(-c3cccc(S(N)(=O)=O)c3-c3nn[nH]n3)ccc2n1 [Example 286, 3-(2-(aminomethyl)quinolin-6-yl)-2-(2H-tetrazol-5-yl)benzenesulfonamide]",–,–,–,–,–,12.7,204,0.7813,3.125,3.125,6.14,–
"CN1CCN(Cc2ccc(-c3cccc(S(N)(=O)=O)c3-c3nnn[nH]3)cc2)CC1 [Example 329, 4′-((4-methylpiperazin-1-yl)methyl)-2-(1H-tetrazol-5-yl)-[1,1′-biphenyl]-3-sulfonamide]",–,–,–,–,–,683,87.1,0.7813,1.563,200,8.26,–
